Laboratory results as given in paper PMC7730235, “Discovery of a Novel Class of Covalent Dual Inhibitors Targeting the Protein Kinases BMX and BTK” (International Journal of Molecular Sciences, 2020).

Experiments:
[1] = tested on: glutathione (GSH); test: Glutathione reactivity / stability against GSH; type: physicochemical; conditions: glutathione (GSH) in PBS buffer, pH 7.4, 5 mM GSH, read-out: half-life (t1/2) against glutathione (converted)
Protocol: A total of 5 µL of a 10 mM compound stock solution in DMSO were added to 5 µL of a 4 mM Indoprofen solution in PBS as internal standard. The mixture was diluted with PBS buffer to a total volume of 1 mL of component A. Additionally, a freshly prepared solution of 10 mM GSH in PBS buffer was used as component B. A total of 250 µL of each component was mixed and immediately subjected to HPLC analysis for t^0 measurement. The probes were stored at 40 °C in between the respective injections. t1/2 was determined by plotting natural logarithm of AUC/AUC0 against time.

[2] = biological target: T1, BLK (Homo sapiens, UniProt P51451); test: Radiometric kinase assay (Reaction Biology HotSpot); type: biochemical; conditions: radiometric HotSpot, five-dose singlicate, [ATP] = 10 μM
T1 construct: purchased Reaction Biology Corporation
T1 sequence (P51451 whole entry): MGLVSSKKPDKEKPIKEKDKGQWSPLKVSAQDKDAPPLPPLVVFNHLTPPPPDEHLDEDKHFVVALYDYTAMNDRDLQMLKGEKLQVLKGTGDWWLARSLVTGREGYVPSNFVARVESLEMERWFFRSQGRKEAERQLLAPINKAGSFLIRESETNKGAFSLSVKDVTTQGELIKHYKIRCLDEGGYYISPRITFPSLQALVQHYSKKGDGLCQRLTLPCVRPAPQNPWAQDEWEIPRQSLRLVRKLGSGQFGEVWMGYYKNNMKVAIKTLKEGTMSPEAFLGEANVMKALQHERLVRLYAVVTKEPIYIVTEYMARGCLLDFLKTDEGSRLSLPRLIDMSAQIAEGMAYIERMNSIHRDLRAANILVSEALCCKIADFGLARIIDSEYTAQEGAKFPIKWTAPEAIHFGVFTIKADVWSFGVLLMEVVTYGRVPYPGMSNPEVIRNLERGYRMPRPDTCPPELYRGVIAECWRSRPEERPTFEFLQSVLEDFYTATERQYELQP
Protocol: (§1) If not mentioned differently, in vitro profiling of compounds was performed at Reaction Biology Corporation using the HotSpot™ assay platform.

[3] = biological target: T2, EGFR (Homo sapiens, UniProt P00533); test: as above; type: biochemical; conditions: radiometric HotSpot, five-dose singlicate, [ATP] = 10 μM
T2 construct: purchased Reaction Biology Corporation
T2 sequence (P00533 25-1210): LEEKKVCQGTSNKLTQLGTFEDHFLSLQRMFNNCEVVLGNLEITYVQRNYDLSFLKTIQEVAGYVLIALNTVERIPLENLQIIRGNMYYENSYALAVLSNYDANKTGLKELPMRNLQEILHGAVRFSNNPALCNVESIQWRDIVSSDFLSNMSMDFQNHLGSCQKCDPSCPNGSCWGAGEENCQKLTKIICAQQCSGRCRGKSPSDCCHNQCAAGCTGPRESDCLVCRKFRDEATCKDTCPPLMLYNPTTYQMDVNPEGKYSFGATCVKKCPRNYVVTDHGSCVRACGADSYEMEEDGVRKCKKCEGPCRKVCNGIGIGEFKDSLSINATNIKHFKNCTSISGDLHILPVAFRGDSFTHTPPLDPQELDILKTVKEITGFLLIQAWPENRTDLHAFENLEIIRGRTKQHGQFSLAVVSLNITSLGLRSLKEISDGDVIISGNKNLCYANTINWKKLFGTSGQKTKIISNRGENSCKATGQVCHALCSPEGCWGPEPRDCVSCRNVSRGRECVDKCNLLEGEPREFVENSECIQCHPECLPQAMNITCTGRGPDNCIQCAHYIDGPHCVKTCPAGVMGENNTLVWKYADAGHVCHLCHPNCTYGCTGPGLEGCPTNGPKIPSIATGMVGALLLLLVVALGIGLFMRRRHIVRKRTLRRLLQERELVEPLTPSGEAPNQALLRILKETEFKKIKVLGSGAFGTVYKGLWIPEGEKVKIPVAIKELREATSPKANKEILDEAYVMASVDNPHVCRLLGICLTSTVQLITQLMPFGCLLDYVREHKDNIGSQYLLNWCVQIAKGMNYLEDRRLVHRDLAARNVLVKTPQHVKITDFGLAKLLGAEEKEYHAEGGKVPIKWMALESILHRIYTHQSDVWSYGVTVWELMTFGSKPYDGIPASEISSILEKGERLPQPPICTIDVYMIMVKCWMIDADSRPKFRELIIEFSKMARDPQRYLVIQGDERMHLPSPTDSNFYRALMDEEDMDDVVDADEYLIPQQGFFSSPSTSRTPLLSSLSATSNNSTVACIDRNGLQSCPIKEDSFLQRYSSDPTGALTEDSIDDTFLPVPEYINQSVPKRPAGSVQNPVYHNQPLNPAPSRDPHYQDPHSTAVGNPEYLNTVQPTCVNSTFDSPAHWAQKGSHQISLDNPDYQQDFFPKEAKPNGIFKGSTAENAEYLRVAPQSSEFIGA
Protocol: as §1

[4] = biological target: T3, HER2 (Homo sapiens, UniProt P04626); test: as above; type: biochemical; conditions: radiometric HotSpot, five-dose singlicate, [ATP] = 10 μM
T3 construct: purchased Reaction Biology Corporation
T3 sequence (P04626 23-1255): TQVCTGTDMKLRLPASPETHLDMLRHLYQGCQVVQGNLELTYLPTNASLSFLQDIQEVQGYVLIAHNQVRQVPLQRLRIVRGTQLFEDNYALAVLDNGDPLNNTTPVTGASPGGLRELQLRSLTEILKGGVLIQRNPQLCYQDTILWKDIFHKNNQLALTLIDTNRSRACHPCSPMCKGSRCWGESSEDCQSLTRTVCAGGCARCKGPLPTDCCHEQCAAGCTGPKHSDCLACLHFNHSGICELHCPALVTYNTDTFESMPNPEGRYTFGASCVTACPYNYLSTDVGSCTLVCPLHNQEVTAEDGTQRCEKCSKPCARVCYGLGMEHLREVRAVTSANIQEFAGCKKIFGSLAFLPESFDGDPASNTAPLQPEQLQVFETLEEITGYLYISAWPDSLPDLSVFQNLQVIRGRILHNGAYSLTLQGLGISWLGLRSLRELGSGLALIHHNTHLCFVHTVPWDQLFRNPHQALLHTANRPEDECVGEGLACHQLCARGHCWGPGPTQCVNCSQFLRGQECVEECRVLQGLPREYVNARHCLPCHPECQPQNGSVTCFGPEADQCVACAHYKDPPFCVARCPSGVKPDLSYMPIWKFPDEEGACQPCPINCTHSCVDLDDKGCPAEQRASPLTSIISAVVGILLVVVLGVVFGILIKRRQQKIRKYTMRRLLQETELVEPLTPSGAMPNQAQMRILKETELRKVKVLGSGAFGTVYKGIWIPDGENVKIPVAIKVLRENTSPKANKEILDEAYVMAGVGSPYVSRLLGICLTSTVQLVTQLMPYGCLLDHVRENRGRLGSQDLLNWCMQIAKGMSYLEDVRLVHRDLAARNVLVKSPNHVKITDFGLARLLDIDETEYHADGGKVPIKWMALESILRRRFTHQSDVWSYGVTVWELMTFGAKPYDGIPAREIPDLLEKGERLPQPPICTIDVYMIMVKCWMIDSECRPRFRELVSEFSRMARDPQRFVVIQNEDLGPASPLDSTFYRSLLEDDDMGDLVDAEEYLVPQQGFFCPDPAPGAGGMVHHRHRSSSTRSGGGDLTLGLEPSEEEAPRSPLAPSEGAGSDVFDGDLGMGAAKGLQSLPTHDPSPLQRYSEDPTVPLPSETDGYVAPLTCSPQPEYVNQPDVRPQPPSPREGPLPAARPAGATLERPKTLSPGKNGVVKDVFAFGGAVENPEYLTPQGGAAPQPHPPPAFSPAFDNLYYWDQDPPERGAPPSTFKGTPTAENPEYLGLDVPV
Protocol: as §1

[5] = biological target: T4, HER4 (Homo sapiens, UniProt Q15303); test: as above; type: biochemical; conditions: radiometric HotSpot, five-dose singlicate, [ATP] = 10 μM
T4 construct: purchased Reaction Biology Corporation
T4 sequence (Q15303 26-1308): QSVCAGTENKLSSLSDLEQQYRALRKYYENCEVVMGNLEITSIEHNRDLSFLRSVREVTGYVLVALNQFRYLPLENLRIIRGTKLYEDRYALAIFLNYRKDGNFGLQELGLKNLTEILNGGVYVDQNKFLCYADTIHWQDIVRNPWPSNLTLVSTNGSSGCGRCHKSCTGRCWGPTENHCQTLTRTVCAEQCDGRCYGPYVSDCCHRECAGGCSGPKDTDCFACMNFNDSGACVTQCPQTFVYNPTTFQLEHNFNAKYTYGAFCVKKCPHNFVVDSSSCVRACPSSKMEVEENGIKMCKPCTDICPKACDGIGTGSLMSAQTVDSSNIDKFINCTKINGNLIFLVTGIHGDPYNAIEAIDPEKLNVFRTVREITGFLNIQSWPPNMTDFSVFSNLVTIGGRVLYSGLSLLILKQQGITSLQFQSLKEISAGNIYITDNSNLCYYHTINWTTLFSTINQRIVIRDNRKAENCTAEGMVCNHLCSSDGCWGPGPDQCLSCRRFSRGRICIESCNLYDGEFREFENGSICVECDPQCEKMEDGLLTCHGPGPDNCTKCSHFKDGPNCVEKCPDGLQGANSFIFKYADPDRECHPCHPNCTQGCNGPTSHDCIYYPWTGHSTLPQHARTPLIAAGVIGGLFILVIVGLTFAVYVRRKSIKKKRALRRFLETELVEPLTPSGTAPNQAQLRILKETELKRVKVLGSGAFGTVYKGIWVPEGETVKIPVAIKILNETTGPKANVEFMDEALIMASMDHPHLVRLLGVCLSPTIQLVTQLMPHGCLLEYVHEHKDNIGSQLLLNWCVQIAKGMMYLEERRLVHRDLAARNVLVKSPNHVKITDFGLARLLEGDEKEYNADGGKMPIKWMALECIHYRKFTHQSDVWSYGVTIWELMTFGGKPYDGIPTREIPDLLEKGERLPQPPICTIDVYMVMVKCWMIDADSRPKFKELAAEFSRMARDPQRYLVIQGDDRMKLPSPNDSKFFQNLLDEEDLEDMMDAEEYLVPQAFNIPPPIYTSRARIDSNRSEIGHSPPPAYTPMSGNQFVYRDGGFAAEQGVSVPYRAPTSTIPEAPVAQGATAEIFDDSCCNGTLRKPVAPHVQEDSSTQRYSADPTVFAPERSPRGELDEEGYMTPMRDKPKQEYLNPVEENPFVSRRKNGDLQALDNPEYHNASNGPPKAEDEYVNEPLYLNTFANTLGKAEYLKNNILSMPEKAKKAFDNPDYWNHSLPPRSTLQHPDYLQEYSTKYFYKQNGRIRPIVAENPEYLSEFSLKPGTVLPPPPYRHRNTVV
Protocol: as §1

[6] = biological target: T5, ITK (Homo sapiens, UniProt Q08881); test: as above; type: biochemical; conditions: read-out: Residual Activity @ 200 nM, ITK
T5 construct: purchased Reaction Biology Corporation
T5 sequence (Q08881 1-620): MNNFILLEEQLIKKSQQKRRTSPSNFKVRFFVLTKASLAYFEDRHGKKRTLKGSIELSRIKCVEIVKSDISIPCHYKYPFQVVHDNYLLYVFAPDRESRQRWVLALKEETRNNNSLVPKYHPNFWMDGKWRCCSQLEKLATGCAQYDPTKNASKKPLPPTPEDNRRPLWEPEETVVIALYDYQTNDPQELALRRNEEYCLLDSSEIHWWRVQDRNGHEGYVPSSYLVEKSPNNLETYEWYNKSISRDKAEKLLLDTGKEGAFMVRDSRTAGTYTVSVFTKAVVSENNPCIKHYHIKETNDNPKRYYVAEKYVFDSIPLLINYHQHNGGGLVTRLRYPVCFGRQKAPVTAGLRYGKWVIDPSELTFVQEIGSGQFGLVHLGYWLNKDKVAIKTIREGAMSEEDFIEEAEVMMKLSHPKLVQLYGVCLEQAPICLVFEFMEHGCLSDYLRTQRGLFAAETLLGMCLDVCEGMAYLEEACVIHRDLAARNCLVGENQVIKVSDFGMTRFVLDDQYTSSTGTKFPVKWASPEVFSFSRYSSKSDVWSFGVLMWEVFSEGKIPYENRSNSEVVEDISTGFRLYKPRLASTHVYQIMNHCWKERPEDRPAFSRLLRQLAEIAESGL
Protocol: as §1

[7] = biological target: T6, JAK3 (Homo sapiens, UniProt P52333); test: as above; type: biochemical
T6 construct: purchased Reaction Biology Corporation
T6 sequence (P52333 1-1124): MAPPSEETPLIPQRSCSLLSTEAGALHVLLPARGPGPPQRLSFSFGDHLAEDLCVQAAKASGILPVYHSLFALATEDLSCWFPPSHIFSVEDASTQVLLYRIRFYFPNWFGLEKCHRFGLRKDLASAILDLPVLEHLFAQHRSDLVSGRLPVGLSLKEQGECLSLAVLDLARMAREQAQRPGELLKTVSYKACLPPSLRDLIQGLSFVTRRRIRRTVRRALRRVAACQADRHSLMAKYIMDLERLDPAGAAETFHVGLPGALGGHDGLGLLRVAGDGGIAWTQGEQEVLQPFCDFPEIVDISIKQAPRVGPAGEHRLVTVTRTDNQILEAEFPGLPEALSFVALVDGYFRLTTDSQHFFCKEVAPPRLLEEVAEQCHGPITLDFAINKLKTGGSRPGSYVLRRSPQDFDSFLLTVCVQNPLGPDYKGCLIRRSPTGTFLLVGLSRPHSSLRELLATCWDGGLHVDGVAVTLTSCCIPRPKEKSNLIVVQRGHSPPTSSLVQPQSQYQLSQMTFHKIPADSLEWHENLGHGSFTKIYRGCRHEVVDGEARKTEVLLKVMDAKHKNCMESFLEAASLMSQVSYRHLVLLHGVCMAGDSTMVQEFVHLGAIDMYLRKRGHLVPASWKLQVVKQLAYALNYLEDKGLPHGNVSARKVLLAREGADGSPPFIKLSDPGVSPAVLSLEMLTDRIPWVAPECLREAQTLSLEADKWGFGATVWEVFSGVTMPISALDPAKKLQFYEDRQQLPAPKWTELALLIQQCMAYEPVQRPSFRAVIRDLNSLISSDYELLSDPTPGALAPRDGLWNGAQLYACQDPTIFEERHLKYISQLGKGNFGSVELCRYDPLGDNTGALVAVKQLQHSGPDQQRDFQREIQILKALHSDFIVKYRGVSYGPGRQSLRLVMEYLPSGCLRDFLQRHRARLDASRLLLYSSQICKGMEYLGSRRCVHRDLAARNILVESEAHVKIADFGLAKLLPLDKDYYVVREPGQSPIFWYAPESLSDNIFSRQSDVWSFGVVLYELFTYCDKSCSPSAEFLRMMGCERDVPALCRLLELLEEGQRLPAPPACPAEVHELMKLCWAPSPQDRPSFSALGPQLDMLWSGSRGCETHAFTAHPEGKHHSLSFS
Protocol: as §1

[8] = biological target: T7, MKK7 (Homo sapiens, UniProt O14733); test: as above; type: biochemical; conditions: read-out: Residual Activity @ 200 nM, MKK7
T7 construct: purchased Reaction Biology Corporation
T7 sequence (O14733 1-419): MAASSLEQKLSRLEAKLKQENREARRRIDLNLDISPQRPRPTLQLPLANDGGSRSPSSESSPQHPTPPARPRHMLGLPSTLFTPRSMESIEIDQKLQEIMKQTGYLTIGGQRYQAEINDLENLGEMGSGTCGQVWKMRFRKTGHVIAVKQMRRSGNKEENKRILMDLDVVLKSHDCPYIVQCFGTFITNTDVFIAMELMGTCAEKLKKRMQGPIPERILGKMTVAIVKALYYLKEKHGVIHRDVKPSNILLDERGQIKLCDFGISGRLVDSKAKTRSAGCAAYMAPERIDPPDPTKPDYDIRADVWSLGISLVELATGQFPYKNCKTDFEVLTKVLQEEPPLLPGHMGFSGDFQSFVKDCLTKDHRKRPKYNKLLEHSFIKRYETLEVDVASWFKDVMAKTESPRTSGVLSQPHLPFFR
Protocol: as §1

[9] = biological target: T8, TEC (Homo sapiens, UniProt P42680); test: as above; type: biochemical; conditions: radiometric HotSpot, five-dose singlicate, [ATP] = 10 μM
T8 construct: purchased Reaction Biology Corporation
T8 sequence (P42680 1-631): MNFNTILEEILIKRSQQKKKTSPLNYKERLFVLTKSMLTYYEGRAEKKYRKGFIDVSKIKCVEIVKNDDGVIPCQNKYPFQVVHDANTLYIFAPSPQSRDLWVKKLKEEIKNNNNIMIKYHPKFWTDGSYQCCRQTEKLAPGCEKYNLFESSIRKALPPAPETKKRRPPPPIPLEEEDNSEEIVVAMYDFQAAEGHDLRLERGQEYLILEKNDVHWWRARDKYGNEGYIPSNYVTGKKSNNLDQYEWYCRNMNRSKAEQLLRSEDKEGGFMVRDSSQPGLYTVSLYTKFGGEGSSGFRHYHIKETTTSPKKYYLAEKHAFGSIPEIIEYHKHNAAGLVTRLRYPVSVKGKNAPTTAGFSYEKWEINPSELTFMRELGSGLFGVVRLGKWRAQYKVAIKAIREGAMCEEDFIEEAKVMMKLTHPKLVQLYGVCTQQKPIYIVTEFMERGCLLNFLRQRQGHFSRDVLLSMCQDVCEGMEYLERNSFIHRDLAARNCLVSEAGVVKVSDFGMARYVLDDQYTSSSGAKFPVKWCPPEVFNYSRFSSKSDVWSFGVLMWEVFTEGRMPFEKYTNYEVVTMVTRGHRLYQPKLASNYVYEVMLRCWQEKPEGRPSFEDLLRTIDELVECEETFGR
Protocol: as §1

[10] = biological target: T9, TXK (Homo sapiens, UniProt P42681); test: as above; type: biochemical; conditions: radiometric HotSpot, five-dose singlicate, [ATP] = 10 μM
T9 construct: purchased Reaction Biology Corporation
T9 sequence (P42681 1-527): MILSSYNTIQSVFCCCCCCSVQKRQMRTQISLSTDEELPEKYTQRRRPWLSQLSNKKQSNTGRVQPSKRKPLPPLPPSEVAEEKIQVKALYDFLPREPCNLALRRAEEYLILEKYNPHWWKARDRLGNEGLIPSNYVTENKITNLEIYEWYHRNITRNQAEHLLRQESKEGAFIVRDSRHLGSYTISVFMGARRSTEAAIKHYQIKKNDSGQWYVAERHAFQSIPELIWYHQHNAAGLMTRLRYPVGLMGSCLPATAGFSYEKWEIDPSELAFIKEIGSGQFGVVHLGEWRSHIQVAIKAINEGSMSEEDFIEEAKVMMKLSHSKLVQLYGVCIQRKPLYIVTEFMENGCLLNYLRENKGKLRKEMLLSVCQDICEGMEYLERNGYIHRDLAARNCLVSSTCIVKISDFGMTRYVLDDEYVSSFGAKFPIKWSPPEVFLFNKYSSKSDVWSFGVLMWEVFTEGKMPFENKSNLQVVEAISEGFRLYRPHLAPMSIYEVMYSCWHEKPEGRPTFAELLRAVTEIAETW
Protocol: as §1

[11] = biological target: T10, BMX (Homo sapiens, UniProt P51813); conditions: cited from earlier work
T10 construct: purchased Reaction Biology Corporation
T10 sequence (P51813 1-675): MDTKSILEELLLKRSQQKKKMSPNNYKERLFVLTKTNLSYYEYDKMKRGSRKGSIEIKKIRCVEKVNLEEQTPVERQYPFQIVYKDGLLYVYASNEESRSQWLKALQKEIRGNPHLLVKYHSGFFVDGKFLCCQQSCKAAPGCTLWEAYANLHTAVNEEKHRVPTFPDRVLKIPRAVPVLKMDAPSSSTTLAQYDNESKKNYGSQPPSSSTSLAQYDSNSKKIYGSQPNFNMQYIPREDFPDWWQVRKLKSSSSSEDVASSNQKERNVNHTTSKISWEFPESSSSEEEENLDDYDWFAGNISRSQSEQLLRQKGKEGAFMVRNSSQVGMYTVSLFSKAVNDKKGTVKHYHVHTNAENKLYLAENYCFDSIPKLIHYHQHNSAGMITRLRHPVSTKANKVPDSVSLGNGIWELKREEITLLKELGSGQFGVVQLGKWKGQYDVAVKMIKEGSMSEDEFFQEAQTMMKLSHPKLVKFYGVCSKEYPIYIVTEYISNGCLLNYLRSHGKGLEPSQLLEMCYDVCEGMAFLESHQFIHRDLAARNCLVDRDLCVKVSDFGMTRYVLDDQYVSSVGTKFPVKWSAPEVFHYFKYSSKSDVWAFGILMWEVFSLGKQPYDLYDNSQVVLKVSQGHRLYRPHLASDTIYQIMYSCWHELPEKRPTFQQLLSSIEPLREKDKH

Question: For `CN(C)C/C=C/C(=O)Nc1cc2c(Nc3ccc(F)c(Cl)c3)ncnc2cc1O[C@H]1CCOC1` [Afatinib, reference compound], which half-life at 25 µM [1] is on record?
Answer: 45.6 min

Question: Which IC50 [2] does the source give for `C=CC(=O)Nc1cccc(-c2c[nH]c3ncc(NC(=O)C4CCCC4)cc23)c1` [Compound 12a, N-(3-(3-acrylamidophenyl)-1H-pyrrolo[2,3-b]pyridin-5-yl)cyclopentanecarboxamide] here?
Answer: 52 nM

Question: And the IC50 [3]?
Answer: 158 nM

Question: And the IC50 [4]?
Answer: 612 nM

Question: What about the IC50 [5] of the same molecule?
Answer: 106 nM

Question: What about the remaining activity at 0.2 µM [6] of the same molecule?
Answer: 98.5%

Question: What about the IC50 ([7]; radiometric HotSpot, five-dose singlicate, [ATP] = 10 μM) of the same molecule?
Answer: 1340 nM

Question: What about the remaining activity at 0.2 µM ([7]; read-out: Residual Activity @ 200 nM, JAK3) of the same molecule?
Answer: 94.5%

Question: What about the remaining activity at 0.2 µM [8] of the same molecule?
Answer: 100%

Question: And the IC50 [9]?
Answer: 31 nM

Question: What about the IC50 [10] of the same molecule?
Answer: 13 nM

Question: For `C=CC(=O)Nc1cc(C)cc(-n2c(=O)ccc3cnc4cc(-c5ccc(NS(C)(=O)=O)cc5)ccc4c32)c1` [JS25], which “kinact/KI BMX” value [11] is on record?
Answer: 1.9e+07 M⁻¹ s⁻¹
